# Source: patent publication US20260070945A1, “MACROCYCLIC IMMUNOMODULATORS” (Bristol-Myers Squibb Company, priority 2022, published 2026)
# *1 amine or outer side, *2 acyl side, *3 side chain or, on linkers, in order; H or OH if unused. Where a SMILES comes first, the peptide text is derived from it. Bridges are numbered along the chain shown (N, C = ends). [ ]: non-standard residue; d: D form. The star is where a group is joined. ξ: configuration not given here. X13 = O=C([C@H](Cc1ccc(-c2cc(F)cc(F)c2)cc1)N[*:1])[*:2]; Phe(3-CF3) = N[C@@H](Cc1cccc(C(F)(F)F)c1)C(=O)O; Phe(4-COOH) = N[C@@H](Cc1ccc(C(=O)O)cc1)C(=O)O; Trp(1-Me) = Cn1cc(C[C@H](N)C(=O)O)c2ccccc21; Bip = N[C@@H](Cc1ccc(-c2ccccc2)cc1)C(=O)O; Phe(3-Me) = Cc1cccc(C[C@H](N)C(=O)O)c1; γGlu = O=C(O)[C@H](CCC(=O)[*:2])N[*:1]; NH(CH2)12COOH = O=C(O)CCCCCCCCCCCCN*; NMeAEEA = CN(CCOCCOCC(=O)[*:2])[*:1]; Cyclopropanecarbonyl = O=C(C1CC1)*; Val(3-OH) = CC(C)(O)[C@H](N)C(=O)O; hArg = N=C(N)NCCCC[C@H](N)C(=O)O; 4Pal = N[C@@H](Cc1ccncc1)C(=O)O; Cha = N[C@@H](CC1CCCCC1)C(=O)O; Ile(3ξ) = CCC(C)[C@H](N)C(=O)O; Thr(3ξ) = CC(O)[C@H](N)C(=O)O; 12Ado = NCCCCCCCCCCCC(=O)O; dOrn = NCCC[C@@H](N)C(=O)O; Carboxymethyl = O=C(O)C*; NMeA = CN[C@@H](C)C(=O)O; Orn = NCCC[C@H](N)C(=O)O; Aun = NCCCCCCCCCCC(=O)O; Dab = NCC[C@H](N)C(=O)O; Dap = NC[C@H](N)C(=O)O; AEEA = NCCOCCOCC(=O)O
# Molecular target: T1, PD-1/PD-L1 interaction (PE-labeled human PD-L1-Ig binding to Jurkat cell line over-expressing human PD-1) (Homo sapiens, UniProt Q15116)
# T1 construct: expressed in transfected cells; host or cells: Jurkat
# Test: Jurkat-PD-1 Cell Binding High-Content Screening Assay (CBA)
# Settings: Jurkat-hPD-1 cells, PE-labeled PD-L1-Ig 20 nM final; read-out: Jurkat HPD1 PDL1 IC50
# Procedure, shortened: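 Read-out: high-content imaging of cell-bound PE fluorescence, with Hoechst 33342 nuclear counterstain after paraformaldehyde fixation. Before labeled ligand (20 nM final, 1 h) was added, compound sat on the cells for 2 h at 37 °C in DMEM/10% FCS.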
# T1 sequence (Q15116 25-288): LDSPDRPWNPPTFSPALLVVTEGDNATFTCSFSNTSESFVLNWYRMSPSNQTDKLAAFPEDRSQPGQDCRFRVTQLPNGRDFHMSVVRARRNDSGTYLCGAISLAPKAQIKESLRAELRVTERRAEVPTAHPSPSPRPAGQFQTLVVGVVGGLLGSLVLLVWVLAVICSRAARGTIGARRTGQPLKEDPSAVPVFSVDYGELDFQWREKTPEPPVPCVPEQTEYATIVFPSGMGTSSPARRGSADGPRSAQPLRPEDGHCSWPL
row,IC50 [nM],SMILES
1,44.1,Cc1cccc(C[C@@H]2NC(=O)[C@H](CC(=O)O)NC(=O)[C@H](Cc3ccc(OCC(=O)O)cc3)NC(=O)[C@H](Cc3ccc(OCC(=O)O)cc3)NC(=O)CSC[C@@H](C(=O)N[C@@H](CCN)C(=O)NCCCCCCCCCCC(=O)O)NC(=O)[C@H](CO)NC(=O)[C@H](C(C)C)NC(=O)[C@H](CC3CCCCC3)NC(=O)[C@H](CCN)NC(=O)[C@@H](CC(C)C)NC(=O)[C@H](C)N(C)C(=O)[C@H](Cc3ccc(OCC(=O)O)cc3)NC(=O)[C@H](Cc3ccc(-c4ccccc4)cc3)NC(=O)[C@H](C(C)C)NC2=O)c1 [Example 1265] ({CH2CO}-Y(Carboxymethyl)Y(Carboxymethyl)D[Phe(3-Me)]V[Bip]Y(Carboxymethyl)[NMeA][dL][Dab][Cha]VSC[Dab][Aun]-OH; thioether N-14)
2,19.1,CC(C)C[C@@H]1NC(=O)[C@H](Cc2c[nH]c3ccccc23)NC(=O)[C@H](CC(=O)O)NC(=O)[C@H](Cc2ccc(C(=O)O)cc2)NC(=O)[C@H](Cc2ccc(OCC(=O)O)cc2)NC(=O)CSC[C@@H](C(=O)N[C@@H](CCCN)C(=O)NCCOCCOCC(=O)NCCCCCCCCCCCC(=O)O)NC(=O)[C@H](CO)NC(=O)[C@H](C(C)C)NC(=O)[C@H](CC2CCCCC2)NC(=O)[C@H](CCN)NC(=O)[C@@H](CC(C)C)NC(=O)[C@H](C)N(C)C(=O)[C@H](C(C)C)NC(=O)[C@H](Cc2ccc(-c3ccccc3)cc2)NC1=O [Example 2131] ({CH2CO}-Y(Carboxymethyl)[Phe(4-COOH)]DWL[Bip]V[NMeA][dL][Dab][Cha]VSC[Orn][AEEA][12Ado]-OH; thioether N-14)
3,31.6,Cc1cccc(C[C@@H]2NC(=O)[C@H](CC(=O)O)NC(=O)[C@H](Cc3ccc(OCC(=O)O)cc3)NC(=O)[C@H]([C@@H](C)O)NC(=O)CSC[C@@H](C(=O)N[C@@H](CCN)C(=O)NCCCCCCCCCCC(=O)O)NC(=O)[C@H]([C@@H](C)O)NC(=O)[C@H](C(C)C)NC(=O)[C@H](CC3CCCCC3)NC(=O)[C@H](CCN)NC(=O)[C@@H](CC(C)C)NC(=O)[C@H](C)N(C)C(=O)[C@H](Cc3ccc(OCC(=O)O)cc3)NC(=O)[C@H](Cc3ccc(-c4cc(F)cc(F)c4)cc3)NC(=O)[C@H](Cc3ccc(C(=O)O)cc3)NC2=O)c1 [Example 1234] ({CH2CO}-TY(Carboxymethyl)D[Phe(3-Me)][Phe(4-COOH)][X13]Y(Carboxymethyl)[NMeA][dL][Dab][Cha]VTC[Dab][Aun]-OH; thioether N-14)
4,570,CCC(C)[C@@H]1NC(=O)[C@H](Cc2ccc(-c3ccccc3)cc2)NC(=O)[C@H](C(C)C)NC(=O)[C@H](Cc2cn(C)c3ccccc23)NC(=O)[C@H](CC(=O)O)NC(=O)[C@H](Cc2ccc(OCC(=O)O)cc2)NC(=O)[C@H](C(C)O)NC(=O)CSC[C@@H](C(=O)N[C@@H](CCCN)C(=O)NCCCCCCCCCCC(=O)O)NC(=O)[C@H](C(C)O)NC(=O)[C@H](C(C)C)NC(=O)[C@H](CC2CCCCC2)NC(=O)[C@H](CCN)NC(=O)[C@@H](CC(C)C)NC(=O)[C@H](C)N(C)C1=O (stereo partly drawn) [Example 2416] ({CH2CO}-[Thr(3ξ)]Y(Carboxymethyl)D[Trp(1-Me)]V[Bip][Ile(3ξ)][NMeA][dL][Dab][Cha]V[Thr(3ξ)]C[Orn][Aun]-OH; thioether N-14)
5,45,Cc1cccc(C[C@@H]2NC(=O)[C@H](CC(=O)O)NC(=O)[C@H](Cc3ccc(OCC(=O)O)cc3)NC(=O)[C@H](CN)NC(=O)CSC[C@@H](C(=O)N(C)CCOCCOCC(=O)NCCCCCCCCCCC(=O)O)NC(=O)[C@H](CCCN)NC(=O)[C@H](C(C)C)NC(=O)[C@H](CC3CCCCC3)NC(=O)[C@H](CCN)NC(=O)[C@@H](CC(C)C)NC(=O)[C@H](C)N(C)C(=O)[C@H](C(C)C)NC(=O)[C@H](Cc3ccc(-c4ccccc4)cc3)NC(=O)[C@H](C(C)C)NC2=O)c1 [Example 2414] ({CH2CO}-[Dap]Y(Carboxymethyl)D[Phe(3-Me)]V[Bip]V[NMeA][dL][Dab][Cha]V[Orn]C[NMeAEEA][Aun]-OH; thioether N-14)
6,101,CC(C)C[C@H]1NC(=O)[C@H](C)N(C)C(=O)[C@H](Cc2ccc(C(=O)O)cc2)NC(=O)[C@H](Cc2ccc(-c3ccccc3)cc2)NC(=O)[C@H](Cc2ccc(C(=O)O)cc2)NC(=O)[C@H](Cc2cccc(C(F)(F)F)c2)NC(=O)[C@H](CC(=O)O)NC(=O)[C@H](Cc2ccc(OCC(=O)O)cc2)NC(=O)[C@H](Cc2ccc(C(=O)O)cc2)NC(=O)CSC[C@@H](C(=O)N[C@@H](CCN)C(=O)NCCOCCOCC(=O)N[C@@H](CCC(=O)NCCOCCOCC(=O)NCCCCCCCCCCCCC(=O)O)C(=O)O)NC(=O)[C@H](CCC(=O)O)NC(=O)[C@H](C(C)C)NC(=O)[C@H](CC2CCCCC2)NC(=O)[C@H](CCN)NC1=O [Example 1160] ({CH2CO}-[Phe(4-COOH)]Y(Carboxymethyl)D[Phe(3-CF3)][Phe(4-COOH)][Bip][Phe(4-COOH)][NMeA][dL][Dab][Cha]VEC[Dab][AEEA][γGlu][AEEA]-{NH(CH2)12COOH}; thioether N-14)
7,50.2,CC(=O)NCCCC[C@@H]1NC(=O)[C@H](C(C)(C)O)NC(=O)[C@H](CC2CCCCC2)NC(=O)[C@H](CCN)NC(=O)[C@@H](CC(C)C)NC(=O)[C@H](C)N(C)C(=O)[C@H](CCC(N)=O)NC(=O)[C@H](Cc2ccc(-c3ccccc3)cc2)NC(=O)[C@H](Cc2ccc(C(=O)O)cc2)NC(=O)[C@H](Cc2cccc(C(F)(F)F)c2)NC(=O)[C@H](CC(=O)O)NC(=O)[C@H](Cc2ccc(OCC(=O)O)cc2)NC(=O)[C@H](Cc2ccc(C(=O)O)cc2)NC(=O)CSC[C@@H](C(=O)N[C@@H](CCN)C(=O)NCCOCCOCC(=O)N[C@@H](CCC(=O)NCCOCCOCC(=O)NCCCCCCCCCCCCC(=O)O)C(=O)O)NC1=O [Example 1185] ({CH2CO}-[Phe(4-COOH)]Y(Carboxymethyl)D[Phe(3-CF3)][Phe(4-COOH)][Bip]Q[NMeA][dL][Dab][Cha][Val(3-OH)]K(Ac)C[Dab][AEEA][γGlu][AEEA]-{NH(CH2)12COOH}; thioether N-14)
8,97.4,CCC(C)[C@@H]1NC(=O)[C@H](Cc2ccc(-c3ccccc3)cc2)NC(=O)[C@H](CC(C)C)NC(=O)[C@H](Cc2c[nH]c3ccccc23)NC(=O)[C@H](CC(=O)O)NC(=O)[C@H](Cc2ccc(O)cc2)NC(=O)[C@H](Cc2ccncc2)NC(=O)CSC[C@@H](C(=O)N[C@H](CCCN)C(=O)NCCOCCOCC(=O)NCCCCCCCCCCC(=O)O)NC(=O)[C@H](CO)NC(=O)[C@H](C(C)C)NC(=O)[C@H](CC2CCCCC2)NC(=O)[C@H](CC(N)=O)NC(=O)[C@@H](CC(C)C)NC(=O)[C@H](C)N(C)C1=O (stereo partly drawn) [Example 2070] ({CH2CO}-[4Pal]YDWL[Bip][Ile(3ξ)][NMeA][dL]N[Cha]VSC[dOrn][AEEA][Aun]-OH; thioether N-14)
9,24.5,CCC(C)[C@@H]1NC(=O)[C@H](Cc2ccc(-c3ccccc3)cc2)NC(=O)[C@H](CC(C)C)NC(=O)[C@H](Cc2c[nH]c3ccccc23)NC(=O)[C@H](CC(=O)O)NC(=O)[C@H](Cc2ccc(C(=O)O)cc2)NC(=O)[C@H](Cc2ccc(OCC(=O)O)cc2)NC(=O)CSC[C@@H](C(=O)N[C@@H](CC(N)=O)C(=O)N[C@@H](CCC(=O)NCCCCCCCCCCC(=O)O)C(=O)O)NC(=O)[C@H](CO)NC(=O)[C@H](C(C)C)NC(=O)[C@H](CC2CCCCC2)NC(=O)[C@H](CCN)NC(=O)[C@@H](CC(C)C)NC(=O)[C@H](C)N(C)C1=O (stereo partly drawn) [Example 2069] ({CH2CO}-Y(Carboxymethyl)[Phe(4-COOH)]DWL[Bip][Ile(3ξ)][NMeA][dL][Dab][Cha]VSCN[γGlu][Aun]-OH; thioether N-14)
10,12.3,CC(C)C[C@H]1NC(=O)[C@H](C)N(C)C(=O)[C@H](C(C)C)NC(=O)[C@H](Cc2ccc(-c3ccccc3)cc2)NC(=O)[C@H](C(C)C)NC(=O)[C@H](Cc2c[nH]c3ccccc23)NC(=O)[C@H](CC(=O)O)NC(=O)[C@H](Cc2ccc(OCC(=O)O)cc2)NC(=O)[C@H](CCCCNC(=N)N)NC(=O)CSC[C@@H](C(=O)N[C@@H](CCCCN)C(=O)NCCOCCOCC(=O)NCCCCCCCCCCC(=O)O)NC(=O)[C@H](CO)NC(=O)[C@H](C(C)C)NC(=O)[C@H](CC2CCCCC2)NC(=O)[C@H](CCN)NC1=O [Example 2089] ({CH2CO}-[hArg]Y(Carboxymethyl)DWV[Bip]V[NMeA][dL][Dab][Cha]VSCK[AEEA][Aun]-OH; thioether N-14)
11,40.9,Cc1cccc(C[C@@H]2NC(=O)[C@H](CC(=O)O)NC(=O)[C@H](Cc3ccc(OCC(=O)O)cc3)NC(=O)[C@H](Cc3ccncc3)NC(=O)CSC[C@@H](C(=O)N[C@@H](CCCN)C(=O)N[C@@H](CO)C(=O)NCCCCCCCCCCCC(=O)O)NC(=O)[C@H](C(C)O)NC(=O)[C@H](C(C)C)NC(=O)[C@H](CC3CCCCC3)NC(=O)[C@H](CCN)NC(=O)[C@@H](CC(C)C)NC(=O)[C@H](C)N(C)C(=O)[C@H](CCCCNC(=O)C3CC3)NC(=O)[C@H](Cc3ccc(-c4ccccc4)cc3)NC(=O)[C@H](Cc3ccc(O)cc3)NC2=O)c1 (stereo partly drawn) [Example 2404] ({CH2CO}-[4Pal]Y(Carboxymethyl)D[Phe(3-Me)]Y[Bip]K(Cyclopropanecarbonyl)[NMeA][dL][Dab][Cha]V[Thr(3ξ)]C[Orn]S[12Ado]-OH; thioether N-14)
12,207,Cc1cccc(C[C@@H]2NC(=O)[C@H](CC(=O)O)NC(=O)[C@H](Cc3ccncc3)NC(=O)[C@H](Cc3ccc(OCC(=O)O)cc3)NC(=O)CSC[C@@H](C(=O)N[C@@H](CCN)C(=O)NCCOCCOCC(=O)NCCCCCCCCCCC(=O)O)NC(=O)[C@H](CO)NC(=O)[C@H](C(C)(C)O)NC(=O)[C@H](CC3CCCCC3)NC(=O)[C@H](CCN)NC(=O)[C@@H](CC(C)C)NC(=O)[C@H](C)N(C)C(=O)[C@H](Cc3ccc(OCC(=O)O)cc3)NC(=O)[C@H](Cc3ccc(-c4ccccc4)cc3)NC(=O)[C@H](Cc3ccc(OCC(=O)O)cc3)NC2=O)c1 [Example 1412] ({CH2CO}-Y(Carboxymethyl)[4Pal]D[Phe(3-Me)]Y(Carboxymethyl)[Bip]Y(Carboxymethyl)[NMeA][dL][Dab][Cha][Val(3-OH)]SC[Dab][AEEA][Aun]-OH; thioether N-14)
